Assay results taken from US20100136598A1, “NOVEL MESENCHYMAL PROGENITOR CELLS DERIVED FROM HUMAN BLASTOCYST-DERIVED STEM CELLS” (priority 2007, published 2010).
Like-named read-outs stand apart in the source and are kept apart here.

Assays:
hBS-MP cells [1] = test system: hBS-MP cells
Experimental: hBS cells were dissociated into small cell aggregates and seeded into 96-well plates (Nunc, Kamstrupvej, Denmark) in 100 μl Test medium containing Knock Out DMEM supplemented with 20% Foetal bovine Serum (FBS), 1% penicillin-streptomycin, 1% Glutamax, 0.5 mmol/l β-mercaptoethanol and 1% non-essential amino acids (all Invitrogen). hBS-MP cells and hFF cells were dissociated into single cells and seeded into 96-well plates in 100 μl test medium.
After 24 hours the cytotoxicity test was started by adding 100 μl toxicity solution to the test wells that had twice the concentration as the required end concentration (day 0).

hBS cells = test: Cytotoxicity test in 96-well plates, 10 days (ATP content / Resazurin); details: for Ratios between the IC50 values measured using the Resazurin assay: hBS cells (reference = 1), day 10
hBS-MP cells [2] = test: as above; details: for Ratios between the IC50 values measured using the Resazurin assay: hBS-MP cells relative to hBS cells, day 10; for sensitivity of hBS cells and hBS-MP cells compared to hFF cells (comparison of IC50 values): hBS and hBS-MP cells versus hFF cells
hFF cells = test: as above; details: for Ratios between the IC50 values measured using the Resazurin assay: hFF cells relative to hBS cells, day 10

Row | sensitivity of hBS cells and hBS-MP cells compared to hFF cells (comparison of IC50 values) (hBS-MP cells [1]) | sensitivity of hBS cells and progenitor cells compared to hFF (dose-response curve) (hBS-MP cells [1]) | SMILES | Ratios between the IC50 values measured using the Resazurin assay (hBS cells) | Ratios between the IC50 values measured using the Resazurin assay (hBS-MP cells [2]) | Ratios between the IC50 values measured using the Resazurin assay (hFF cells) | sensitivity of hBS cells and hBS-MP cells compared to hFF cells (comparison of IC50 values) (hBS-MP cells [2]) | toxic reaction (hBS cells; hBS cells, data not shown) | toxic reaction (hBS-MP cells [2]; hBS-MP cells, data not shown) | toxic reaction (hFF cells; hFF cells, data not shown)
1 | much more sensitive | – | O=c1[nH]cc(F)c(=O)[nH]1 [5-FU, 5-fluoro-uracil] | 1 | 3 | 7 | – | – | – | –
2 | – | higher sensitivity | CC1=C(/C=C/C(C)=C/C=C/C(C)=C\C(=O)O)C(C)(C)CCC1 [13CRA, 13-cis-retinoic acid] | 1 | 4 | 10 | much more sensitive | – | – | –
3 | – | higher sensitivity | CC1=C(/C=C/C(C)=C/C=C/C(C)=C/C(=O)O)C(C)(C)CCC1 [ATRA, all-trans-retinoic acid] | 1 | 1 | 2 | much more sensitive | – | – | –
4 | – | – | O=C1NS(=O)(=O)c2ccccc21.[Na] [saccharin, sodium saccharin] | – | – | – | – | no toxic reaction | no toxic reaction | no toxic reaction
